Columns and labels:
Assay type in all cases: in vivo
[1] = tested on: Diamond Back Moth (Plutella xylostella); assay: Insecticidal effect on diamond back moth (Test Example 1): egg-bearing Chinese cabbage seedling immersed in 50 ppm liquid chemical
Summary of the method: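 Seedlings bearing 2-day-old eggs dipped about 30 s in 50 ppm formulated compound, air-dried, held at 25° C. Hatched larvae counted 6 days after immersion; mortality calculated and graded by criterion. Triplicate groups of 10 insects.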

[2] = tested on: Smaller Tea Tortrix (Adoxophyes sp.); assay: Insecticidal effect on smaller tea tortrix (Test Example 3): tea leaves immersed in 50 ppm liquid chemical; conditions: smaller tea tortrix (Adoxophyes sp.) larvae, 8 days after inoculation, 25° C., humidity 70%
Summary of the method: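 Tea leaves dipped about 30 seconds in 50 ppm compound preparation, air-dried, then infested with larvae and held at 25° C and 70% humidity. Dead and alive counted 8 days after inoculation; triplicate groups of 10 insects.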

[3] = tested on: Common Cutworm (Spodoptera litura); assay: Insecticidal effect on common cutworm (Test Example 2): cabbage leaf piece immersed in 50 ppm liquid chemical; conditions: common cutworm (Spodoptera litura) second-instar larvae, 8 days after inoculation, 25° C.
Summary of the method: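 Cabbage leaf pieces (cv. Shikidori) dipped ~30 s in formulated compound at 50 ppm and air-dried. Second-instar larvae added, kept at 25° C. Dead and alive counted at 8 days to give % mortality, scored against a criterion scale; three groups of 10 insects.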

| SMILES | Insecticidal effect (mortality grade), Test Example 1 [1] | Insecticidal effect (mortality grade), Test Example 3 [2] | Insecticidal effect (mortality grade), Test Example 2 [3] |
| --- | --- | --- | --- |
| Cc1cc(C(F)(C(F)(F)F)C(F)(F)F)ccc1NC(=O)c1cccc(I)c1C(=O)NC(C)CS(=O)(=O)NCc1ccc(SC(F)(F)F)cc1 (stereo not drawn) [1-38] | A (Mortality 100%) | A (Mortality 100%) | A (Mortality 100%) |
| Cc1cc(C(F)(C(F)(F)F)C(F)(F)F)ccc1NC(=O)c1cccc(I)c1C(=O)NC(C)CS(=O)(=O)NC(C)(C)Cc1ccccc1 (stereo not drawn) [1-48] | A (Mortality 100%) | A (Mortality 100%) | C (Mortality 89–80%) |
| Cc1cc(C(F)(C(F)(F)F)C(F)(F)F)ccc1NC(=O)c1cccc(I)c1C(=O)NC(C)CS(=O)(=O)Nc1ccccc1 (stereo not drawn) [1-106] | A (Mortality 100%) | E (Mortality less than 50%) | E (Mortality less than 50%) |
| CSCCNS(=O)(=O)CC(C)(C)NC(=O)c1c(I)cccc1C(=O)Nc1ccc(C(F)(C(F)(F)F)C(F)(F)F)cc1C [1-81] | A (Mortality 100%) | A (Mortality 100%) | A (Mortality 100%) |
| CNS(=O)(=O)CC(C)(C)NC(=O)c1c(I)cccc1C(=O)Nc1ccc(C(F)(C(F)(F)F)C(F)(F)F)cc1C [1-176] | A (Mortality 100%) | A (Mortality 100%) | A (Mortality 100%) |
| C=CCNS(=O)(=O)CC(C)NC(=O)c1c(I)cccc1C(=O)Nc1ccc(C(F)(C(F)(F)F)C(F)(F)F)cc1C (stereo not drawn) [1-20] | A (Mortality 100%) | A (Mortality 100%) | A (Mortality 100%) |
| Cc1cc(C(F)(F)C(F)(F)F)ccc1NC(=O)c1cccc(I)c1C(=O)NC(C)(C)CS(=O)(=O)NCc1ccccc1 [1-303] | A (Mortality 100%) | A (Mortality 100%) | A (Mortality 100%) |
| Cc1cc(C(F)(C(F)(F)F)C(F)(F)F)ccc1NC(=O)c1cccc(I)c1C(=O)NC(C)CS(=O)(=O)NCc1ccccc1 (stereo not drawn) [1-22] | A (Mortality 100%) | A (Mortality 100%) | A (Mortality 100%) |
| COCCNS(=O)(=O)CC(C)NC(=O)c1c(I)cccc1C(=O)Nc1ccc(C(F)(C(F)(F)F)C(F)(F)F)cc1C (stereo not drawn) [1-73] | A (Mortality 100%) | A (Mortality 100%) | A (Mortality 100%) |
| CCNS(=O)(=O)CC(C)NC(=O)c1c(I)cccc1C(=O)Nc1ccc(Cl)c(Cl)c1Cl (stereo not drawn) [1-266] | A (Mortality 100%) | E (Mortality less than 50%) | C (Mortality 89–80%) |
| Cc1cc(C(F)(C(F)(F)F)C(F)(F)F)ccc1NC(=O)c1cccc(I)c1C(=O)NC(C)CS(=O)(=O)N[C@@H](C)c1ccccc1 (stereo partly drawn) [1-46] | A (Mortality 100%) | A (Mortality 100%) | A (Mortality 100%) |
| CCN(CC)S(=O)(=O)CC(C)NC(=O)c1c(I)cccc1C(=O)Nc1ccc(C(F)(C(F)(F)F)C(F)(F)F)cc1C (stereo not drawn) [1-144] | A (Mortality 100%) | A (Mortality 100%) | A (Mortality 100%) |
| CCNS(=O)(=O)CC(C)NC(=O)c1c(I)cccc1C(=O)Nc1ccc(OC(F)(F)F)cc1C (stereo not drawn) [1-275] | A (Mortality 100%) | E (Mortality less than 50%) | E (Mortality less than 50%) |
| C#CCNS(=O)(=O)CC(C)NC(=O)c1c(I)cccc1C(=O)Nc1ccc(C(F)(C(F)(F)F)C(F)(F)F)cc1C (stereo not drawn) [1-21] | A (Mortality 100%) | A (Mortality 100%) | A (Mortality 100%) |
| CONS(=O)(=O)CC(C)NC(=O)c1c(I)cccc1C(=O)Nc1ccc(C(F)(C(F)(F)F)C(F)(F)F)cc1C (stereo not drawn) [1-116] | A (Mortality 100%) | A (Mortality 100%) | D (Mortality 79–50%) |
| CCN(CC)C(=O)CNS(=O)(=O)CC(C)NC(=O)c1c(I)cccc1C(=O)Nc1ccc(C(F)(C(F)(F)F)C(F)(F)F)cc1C (stereo not drawn) [1-105] | A (Mortality 100%) | E (Mortality less than 50%) | A (Mortality 100%) |
| Cc1cc(C(F)(C(F)(F)F)C(F)(F)F)ccc1NC(=O)c1cccc(I)c1C(=O)NC(C)CS(=O)(=O)NCC[S+](C)[O-] (stereo not drawn) [1-76] | A (Mortality 100%) | A (Mortality 100%) | A (Mortality 100%) |
| Cc1cc(C(F)(F)C(F)(F)F)ccc1NC(=O)c1cccc(I)c1C(=O)NC(C)(C)CS(=O)(=O)NCCSc1ccccc1 [1-310] | A (Mortality 100%) | A (Mortality 100%) | A (Mortality 100%) |
| CSCC(C)NS(=O)(=O)CC(C)NC(=O)c1c(I)cccc1C(=O)Nc1ccc(C(F)(C(F)(F)F)C(F)(F)F)cc1C (stereo not drawn) [1-91] | A (Mortality 100%) | A (Mortality 100%) | A (Mortality 100%) |
| Cc1cc(C(F)(C(F)(F)F)C(F)(F)F)ccc1NC(=O)c1cccc(I)c1C(=O)NC(C)(C)CS(=O)(=O)N1CCS(=O)(=O)CC1C (stereo not drawn) [1-63] | A (Mortality 100%) | A (Mortality 100%) | A (Mortality 100%) |
| Cc1cc(C(F)(C(F)(F)F)C(F)(F)F)ccc1NC(=O)c1cccc(I)c1C(=O)NC(C)CS(=O)(=O)Nc1cccc(F)c1 (stereo not drawn) [1-109] | A (Mortality 100%) | A (Mortality 100%) | E (Mortality less than 50%) |
| Cc1cc(C(F)(C(F)(F)F)C(F)(F)F)ccc1NC(=O)c1cccc(I)c1C(=O)NC(C)CS(=O)(=O)NC(C)C[S+](C)[O-] (stereo not drawn) [1-92] | A (Mortality 100%) | A (Mortality 100%) | A (Mortality 100%) |
| Cc1cc(C(F)(C(F)(F)F)C(F)(F)F)ccc1NC(=O)c1cccc(I)c1C(=O)NC(C)CS(=O)(=O)N1CCOCC1 (stereo not drawn) [1-54] | A (Mortality 100%) | A (Mortality 100%) | A (Mortality 100%) |

Source: patent US7161032B2, “Sulfonamide derivatives, insecticides for agricultural and horticultural use, and usage thereof” (Nihon Nohyaku Co., Ltd., priority 2002, dated 2007)
